Test results reported in PMC4858918, “Improving the N-terminal diversity of sansanmycin through mutasynthesis” (Microbial Cell Factories, 2016).
Converted amounts (≈) assume the structure as drawn.

How the values were obtained:
M. tuberculosis H37Rv = assay: MIC, microplate Alamar blue assay (MABA); format: cell-based; settings: Mycobacterium tuberculosis, standard and susceptible strain
P. aeruginosa 11 = assay: MIC, microdilution test (CLSI); settings: Pseudomonas aeruginosa, 11, 24 h, read-out: MIC P. aeruginosa 11
[1] = tested on: B. subtilis CMCC (B) 63501; assay: MIC, microdilution test (CLSI); settings: Bacillus subtilis, 24 h, read-out: MIC B. subtilis CMCC (B) 63501
E. coli ΔtolC mutant = assay: MIC, microdilution test (CLSI); settings: Mueller-Hinton broth, 10^6 cells/ml, 37 °C, 24 h, visual observation, triplicate
[2] = Stability determination in KH2PO4 buffer; format: physicochemical; settings: chemical stability, 0.05 M KH2PO4 buffer pH 6.0, room temperature (25 °C), HPLC peak areas, three parallel repeats
Protocol: As it is easier to get enough amount of sansanmycin MX-2 and MX-4, the stability test of sansanmycin A, MX-2 and MX-4 was performed in KH2PO4 buffer (pH 6.0) at room temperature.
Fig. 8 Stability of sansanmycin A, MX-2 and MX-4. a HPLC analysis of sansanmycin A at indicated days in KH2PO4 buffer (pH 6.0) at room temperature. b The changes of the level of sansanmycin A, MX-2 and MX-4 over time. All samples were analyzed by HPLC and quantified according to the areas of peaks. blue line, sansanmycin MX-2; red line, sansanmycin MX-4; green line, sansanmycin A
To dissect the stability of sansanmycin A and other sansanmycin analogues, compounds were dissolved in 0.05 M KH2PO4 buffer (pH adjusted to 6.0 with NaOH). All samples were incubated at 25 °C for 9 days. Each sample has three parallel repeats. Residual analogues were analyzed by HPLC and quantified by the peak areas.

`NNC(=O)c1ccncc1` [Isoniazid] gave an MIC (M. tuberculosis H37Rv) of 0.125 µg/mL (≈ 0.911 µM).
Molecule `[H]/N=C(/N)N[C@H]1[C@H](O)[C@@H](O)[C@H](O[C@@H]2O[C@@H](C)[C@](O)(C=O)[C@H]2O[C@@H]2O[C@@H](CO)[C@H](O)[C@@H](O)[C@@H]2NC)[C@@H](N/C(N)=N\[H])[C@@H]1O` [Streptomycin] has an MIC (M. tuberculosis H37Rv) of 0.25 µg/mL (≈ 0.43 µM), an MIC (P. aeruginosa 11) of 4 µg/mL (≈ 6.88 µM) and an MIC [1] of 2 µg/mL (≈ 3.44 µM). For the same molecule, the “MIC E. coli ΔtolC” value (E. coli ΔtolC mutant) was 16 µg/mL (≈ 27.5 µM).
Molecule `CC[C@@H](CO)NCCN[C@@H](CC)CO` [Ethambutol] has an MIC (M. tuberculosis H37Rv) of 0.5 µg/mL (≈ 2.45 µM).
In the case of `CO[C@H]1/C=C/O[C@@]2(C)Oc3c(C)c(O)c4c(O)c(c(/C=N/N5CCN(C)CC5)c(O)c4c3C2=O)NC(=O)/C(C)=C\C=C\[C@H](C)[C@H](O)[C@@H](C)[C@@H](O)[C@@H](C)[C@H](OC(C)=O)[C@@H]1C` [Rifampicin], the MIC (M. tuberculosis H37Rv) is reported as < 0.06 µg/mL.
With `CSCC[C@H](NC(=O)N[C@@H](Cc1c[nH]c2ccccc12)C(=O)O)C(=O)NC(C(=O)N/C=C1/CC(O)C(n2ccc(=O)[nH]c2=O)O1)C(C)N(C)C(=O)[C@@H](N)Cc1cccc(O)c1` (some centres unmarked) [A, sansanmycin A] the “compound remained after 6 days of incubation” value [2] was “less than 10%”.
